Experimental data: ChEMBL document CHEMBL5528008, “Design and synthesis of the first PARP-1 and proteasome dual inhibitors to treat breast cancer” (Eur J Med Chem, 2024)

Assays:
20S proteasome = experiment: Inhibition of 20S proteasome (unknown origin) using […] as substrate; type: protein-complex assay, Homo sapiens
[1] = target: Poly [ADP-ribose] polymerase 1 (Homo sapiens, UniProt P09874); experiment: Inhibition of PARP-1 (unknown origin) using Femto-ECL as substrate preincubated for 2.7 hrs followed by substrate addition by chemiluminescence assay
MDA-MB-231 = experiment: Cytotoxicity against human MDA-MB-231 cells assessed as inhibition of cell growth incubated for 72 hrs by MTT assay; type: functional, cell-based; details: MDA-MB-231, 72 h
BT-549 = experiment: Cytotoxicity against human BT-549 cells assessed as inhibition of cell growth incubated for 72 hrs by MTT assay; type: functional, cell-based; details: BT-549, 72 h
MCF7 = experiment: Cytotoxicity against human MCF7 cells assessed as inhibition of cell growth incubated for 72 hrs by MTT assay; type: functional, cell-based; details: MCF7, 72 h

Chain of Poly [ADP-ribose] polymerase 1 (P09874 whole entry): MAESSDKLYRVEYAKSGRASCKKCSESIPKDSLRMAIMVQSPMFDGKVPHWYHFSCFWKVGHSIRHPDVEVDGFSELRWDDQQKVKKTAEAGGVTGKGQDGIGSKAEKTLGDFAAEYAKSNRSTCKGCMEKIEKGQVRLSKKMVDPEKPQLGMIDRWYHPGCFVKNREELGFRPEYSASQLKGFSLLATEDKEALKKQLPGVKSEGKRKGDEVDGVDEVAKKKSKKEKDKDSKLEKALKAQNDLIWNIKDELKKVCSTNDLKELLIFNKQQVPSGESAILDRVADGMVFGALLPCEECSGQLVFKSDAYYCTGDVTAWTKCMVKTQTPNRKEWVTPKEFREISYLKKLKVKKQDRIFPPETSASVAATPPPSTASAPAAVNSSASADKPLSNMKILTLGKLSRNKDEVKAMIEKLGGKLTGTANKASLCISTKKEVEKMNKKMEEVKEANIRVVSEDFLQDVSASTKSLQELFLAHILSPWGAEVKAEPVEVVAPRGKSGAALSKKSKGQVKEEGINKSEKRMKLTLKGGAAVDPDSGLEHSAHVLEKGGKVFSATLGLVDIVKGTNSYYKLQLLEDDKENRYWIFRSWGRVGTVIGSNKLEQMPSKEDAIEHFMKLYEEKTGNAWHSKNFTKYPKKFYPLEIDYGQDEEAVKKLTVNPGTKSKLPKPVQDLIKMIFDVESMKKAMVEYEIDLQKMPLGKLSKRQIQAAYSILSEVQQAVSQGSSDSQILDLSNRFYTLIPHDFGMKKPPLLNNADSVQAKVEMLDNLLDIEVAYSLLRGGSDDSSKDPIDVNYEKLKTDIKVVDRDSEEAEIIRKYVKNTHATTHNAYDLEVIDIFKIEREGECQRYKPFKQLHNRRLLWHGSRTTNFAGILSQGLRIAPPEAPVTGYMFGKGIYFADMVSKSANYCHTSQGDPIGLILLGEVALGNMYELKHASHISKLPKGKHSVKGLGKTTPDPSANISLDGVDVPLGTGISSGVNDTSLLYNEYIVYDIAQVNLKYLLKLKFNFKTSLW

Structure (SMILES) | IC50 (20S proteasome) [nM] | IC50 [1] [nM] | IC50 (MDA-MB-231) [nM] | IC50 (BT-549) [nM] | IC50 (MCF7) [nM]
CC(C)C[C@H](NC(=O)CNC(=O)c1cc(Cc2ccc(=O)[nH]n2)ccc1F)B1O[C@@H]2C[C@@H]3C[C@@H](C3(C)C)[C@]2(C)O1 | 2150 | > 1000 |  |  | 
CC(C)C[C@H](NC(=O)[C@H](Cc1ccccc1)NC(=O)c1cc(Cc2n[nH]c(=O)c3ccccc23)ccc1F)B1O[C@@H]2C[C@@H]3C[C@@H](C3(C)C)[C@]2(C)O1 | 24.7 | 98 | 63.6 | 84.9 | 58.6
CC(C)C[C@H](NC(=O)[C@H](Cc1ccccc1)NC(=O)c1cc(COc2ccccc2C(N)=O)ccc1F)B1O[C@@H]2C[C@@H]3C[C@@H](C3(C)C)[C@]2(C)O1 |  | > 1000 |  |  | 
CC(C)C[C@H](NC(=O)[C@H](Cc1c[nH]c2ccccc12)NC(=O)c1cc(Cc2n[nH]c(=O)c3ccccc23)ccc1F)B1O[C@@H]2C[C@@H]3C[C@@H](C3(C)C)[C@]2(C)O1 | 42.6 | 28 | 297 | 216 | 45.1
COC[C@H](NC(=O)c1cc(Cc2n[nH]c(=O)c(C)c2C)ccc1F)C(=O)N[C@@H](CC(C)C)B1O[C@@H]2C[C@@H]3C[C@@H](C3(C)C)[C@]2(C)O1 |  | > 1000 |  |  | 
Cc1c(Cc2ccc(F)c(C(=O)NCC(=O)N[C@@H](CC(C)C)B3O[C@@H]4C[C@@H]5C[C@@H](C5(C)C)[C@]4(C)O3)c2)n[nH]c(=O)c1C | 39.5 | 173 |  |  | 
CC(C)C[C@H](NC(=O)[C@@H](NC(=O)c1cc(Cc2n[nH]c(=O)c3ccccc23)ccc1F)C(C)(C)C)B1O[C@@H]2C[C@@H]3C[C@@H](C3(C)C)[C@]2(C)O1 | 65.6 | 171 | 28.1 | 12.3 | 130
CC(C)C[C@H](NC(=O)[C@H](C)NC(=O)c1cc(Cc2n[nH]c(=O)c3ccccc23)ccc1F)B1O[C@@H]2C[C@@H]3C[C@@H](C3(C)C)[C@]2(C)O1 | 132 | 118 | 37 | 41 | 20.8
CCC[C@H](NC(=O)c1cc(Cc2n[nH]c(=O)c3ccccc23)ccc1F)C(=O)N[C@@H](CC(C)C)B1O[C@@H]2C[C@@H]3C[C@@H](C3(C)C)[C@]2(C)O1 | 103 | 203 | 338 | 605 | 87.9
CC(C)C[C@H](NC(=O)[C@@H](NC(=O)c1cc(Cc2n[nH]c(=O)c3ccccc23)ccc1F)[C@H](C)O)B1O[C@@H]2C[C@@H]3C[C@@H](C3(C)C)[C@]2(C)O1 | 13.8 | 273 | 178 | 179 | 493
CC(C)C[C@H](NC(=O)CNC(=O)c1cc(Cc2n[nH]c(=O)c3ccccc23)ccc1F)B1O[C@@H]2C[C@@H]3C[C@@H](C3(C)C)[C@]2(C)O1 | 157 | 2.1 | 249 | 97.7 | 355
